According to ChEMBL document CHEMBL1155612, “Lyngbyabellin B, a toxic and antifungal secondary metabolite from the marine cyanobacterium Lyngbya majuscula” (J Nat Prod, 2000):
Calls of active or inactive are those of the source. The rule behind the calls is not given here.

Assays:
[1] = test system: Bacillus subtilis; test: Antimicrobial activity against Bacillus subtilis ATCC 6051 by disk agar plate assay; assay type: functional, organism-based
[2] = test system: Salmonella enterica subsp. enterica; test: Antimicrobial activity against Salmonella choleraesuis subsp. choleraesuis ATCC 14028 by disk agar plate assay; assay type: functional, organism-based
[3] = test system: Candida albicans; test: Antimicrobial activity against Candida albicans ATCC 14053 at 100 ug/disk by disk agar plate assay; assay type: functional; conditions: read-out: IZ
[4] = test system: Staphylococcus aureus; test: Antimicrobial activity against Staphylococcus aureus ATCC 12600 by disk agar plate assay; assay type: functional, organism-based
[5] = test system: Artemia; test: Toxicity against brine shrimp after 24 hrs; assay type: organism-based; conditions: in vivo
[6] = test system: Escherichia coli; test: Antimicrobial activity against Escherichia coli ATCC 11775 by disk agar plate assay; assay type: functional, organism-based
[7] = test system: Candida albicans; test: Antimicrobial activity against Candida albicans ATCC 14053 at 10 ug/disk by disk agar plate assay; assay type: functional, organism-based
[8] = test system: Pseudomonas aeruginosa; test: Antimicrobial activity against Pseudomonas aeruginosa ATCC 10145 by disk agar plate assay; assay type: functional, organism-based

In the case of CC(C)[C@@H]1NC(=O)CNC(=O)[C@@H]2CSC(=N2)[C@H](C(C)(C)O)OC(=O)C(C)(C)[C@H](CCCC(C)(Cl)Cl)OC(=O)c2csc1n2 [LYNGBYABELLIN B], the Activity [1] is reported as “inactive”, the Activity [2] is reported as “inactive” and the zone of inhibition at 100 µg/disc [3] is reported as 10.5 mm. For the same molecule, the Activity [4] was “inactive”, the LD50 [5] was 3 ppm and the Activity [6] was “inactive”. For the same molecule, the Activity [7] was “Active” and the Activity [8] was “inactive”.
